Measurements as given in PubChem BioAssay (NCI).
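48-hour exposure; five concentrations; linearly interpolated endpoints. TGI: total growth inhibition.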

Columns and labels:
Test in all cases: NCI-60 cell line screen, 48 h
SNB-78 CNS = tested on: SNB-78 CNS
HOP-18 NSCLC = tested on: HOP-18 NSCLC
RXF-631 renal = tested on: RXF-631 renal

Row | Compound | TGI (SNB-78 CNS) | TGI (HOP-18 NSCLC) | TGI (RXF-631 renal)
1 | O=C1c2ccccc2OP(=O)(OCC(F)(F)F)OC1(C(F)(F)F)C(F)(F)F (stereo unspecified) | > 100 µM | – | –
2 | Nc1nc(SCc2ccc([N+](=O)[O-])cc2)nc2c1ncn2C1OC(CO)C(O)C1O (stereo unspecified) | > 100 µM | – | –
3 | COc1ccc(N=Cc2ccc(N(CCC#N)S(=O)(=O)c3ccccc3)cc2)cc1 | > 100 µM | > 100 µM | > 100 µM
4 | C=CCNC(=O)N(CCCC(NC(C)=O)C(=O)NCc1ccccc1)Cc1ccccc1 (stereo unspecified) | – | > 100 µM | –
5 | Cc1ccc(N2C(=O)CS/C2=C(\C#N)c2nc3ccccc3[nH]2)cc1 | – | > 100 µM | –
6 | CN1c2ccccc2N(C(=O)c2ccc(Cl)cc2)C(CC(=O)O)c2cccn21 (stereo unspecified) | > 100 µM | – | –
7 | CCC12CCCN(Cc3ccccc3)C1c1c(n(C)c3ccccc13)C(C(=O)OC)C2 (stereo unspecified) | – | – | > 239 µM
8 | CC1CN(c2ccc(Cl)cc2)CC(C)OC(=O)O1 (stereo unspecified) | > 100 µM | – | –
9 | N#C/C(c1nc2ccccc2[nH]1)=c1\s/c(=C/c2ccc(Cl)cc2)c(=O)n1-c1ccccc1 | – | > 100 µM | –
10 | CN(C)C(=S)/N=c1\ssc(=S)n1Cc1cccnc1 | > 100 µM | > 100 µM | > 100 µM
11 | CC(C)CC(NC(=O)OC(C)(C)C)C(=O)Nc1ccc(Nc2nc(F)nc(-c3c4ccccc4c4n3CCS4)n2)cc1 (stereo unspecified) | 44.3 µM | 50.6 µM | –
